Patent US20130171091A1, “Nanocell Drug Delivery System” (Massachusetts Institute of Technology, priority 2004, published 2013)

Tests used:
Assay type in all cases: cell-based
[1] = tested on: B16/F10 melanoma cells and human umbilical vein endothelial cells; test: VEGF-induced response in co-culture assay on matrigel; design: VEGF-induced endothelial network: dose or concentration left out as unconfirmed; settings: for effect on tumor cells: Doxorubicin 10-50 μM
Description: (§1) Protocol: For setting up the system, human umbilical vein endothelial cells, pooled from three donors, were purchased from Cambrex, and used between passages 3-6. […] For the tumor component, we used B16/F10 melanoma cells as the model cell line, which were stably transfected to express green fluorescent protein. Plasmid expressing enhanced green fluorescent protein (pEGFP-C2, Clontech) was linearized and lipofected (Lipofectamine 2000, Invitrogen) into B16-F10 cells. […] The GFP-B16/F10 cells were regularly cultured in DMEM supplemented with 5% FBS. Sterile glass coverslips (Corning) were coated with matrigel (extracellular matrix extracted from murine Englebreth-Holms sarcoma, diluted 1:3 in phosphate buffer saline; Becton Dickinson) or collagen (type I from rat's tail, Becton Dickinson). Synchronized human umbilical vein endothelial cells were trypsinised and plated on the coverslips at a density of 2×10^4 cells per well. The cells were allowed to adhere for 24 hours in endothelial basal media supplemented with 20% fetal bovine serum. At this time point, the media was replaced with EBM supplemented with 1% serum, and green fluorescent protein-expressing B16/F10 cells were added to the system at a density of 5×10^3 cells per well. The co-culture was allowed to incubate overnight, following which different treatments were added to the media. At 24 hours post-treatment, the cells were fixed in paraformaldehyde (4% on ice, for 20 min), and stained with propidium iodide. The coverslips were mounted with antifade, and analysed with a LSM510 Zeiss confocal microscope. […] Data were expressed as the ratio of each component to the total area covered by cells.

[2] = tested on: B16/F10 melanoma cells and human umbilical vein endothelial cells; test: HGF/SF-induced response in co-culture assay on matrigel
Description: as §1

[3] = tested on: B16/F10 melanoma cells and human umbilical vein endothelial cells; test: VEGF-induced response in co-culture assay plated on collagen
Description: as §1, with “At this time point, the media was replaced with EBM supplemented with 1% serum, and green fluorescent protein-expressing B16/F10 cells were added to the system at a density of 5×10^3 cells per well. The co-culture was allowed to incubate overnight, following which different treatments were added to the media. At 24 hours post-treatment, the cells were fixed in paraformaldehyde (4% on ice, for 20 min), and stained with propidium iodide.” left out

[4] = tested on: B16/F10 melanoma cells and human umbilical vein endothelial cells; test: HGF-induced response in co-culture assay plated on collagen
Description: as §1, with “At this time point, the media was replaced with EBM supplemented with 1% serum, and green fluorescent protein-expressing B16/F10 cells were added to the system at a density of 5×10^3 cells per well. The co-culture was allowed to incubate overnight, following which different treatments were added to the media. At 24 hours post-treatment, the cells were fixed in paraformaldehyde (4% on ice, for 20 min), and stained with propidium iodide.” left out

[5] = tested on: B16/F10 melanoma cells and human umbilical vein endothelial cells; test: Effect of VEGF and HGF on tumor angiogenesis in vitro, co-culture on matrigel; settings: growth factor added to co-culture on matrigel
Description: Protocol: For setting up the system, human umbilical vein endothelial cells, pooled from three donors, were purchased from Cambrex, and used between passages 3-6. The cells were grown in endothelial basal medium supplemented with 20% fetal bovine serum (FBS) and bulletkit-2 (Sengupta et al. Cancer Res. 63 (23):8351-59, Dec. 1, 2003). For the tumor component, we used B16/F10 melanoma cells as the model cell line, which were stably transfected to express green fluorescent protein. Plasmid expressing enhanced green fluorescent protein (pEGFP-C2, Clontech) was linearized and lipofected (Lipofectamine 2000, Invitrogen) into B16-F10 cells. The stably integrated clones of B16-F10 cells were selected by 800 μg/ml G418. The green fluorescence of the G418 resistant clones was further confirmed by Flow Cytometry and epifluorescence microscopy. The GFP-B16/F10 cells were regularly cultured in DMEM supplemented with 5% FBS. […] The coverslips were mounted with antifade, and analysed with a LSM510 Zeiss confocal microscope. […] Quantification of the area covered by the endothelial cells or GFP-BL6/F10 cells was carried out using a planimetric point-count method using a 224-intersection point square reticulum. Data were expressed as the ratio of each component to the total area covered by cells. […]

| Molecule | effect on tumor cells [1] | VEGF-induced angiogenesis / vascular network [1] | HGF/SF-induced response (endothelial network) [2] | vascular network [5] | other results |
| --- | --- | --- | --- | --- | --- |
| COc1cccc2c1C(=O)c1c(O)c3c(c(O)c1C2=O)C[C@@](O)(C(=O)CO)C[C@@H]3O[C@H]1C[C@H](N)[C@H](O)[C@H](C)O1 [Doxorubicin] | selective ablation of the tumor cells in a concentration-dependent manner | – | – | – | VEGF-induced endothelial network ([1]; highest concentration used): no effect on the VEGF-induced endothelial network; tumor cell death [2]: selective induction of tumor cell death; tumor cell death ([3]; VEGF-treated co-culture): induced tumor cell death; tumor cell death ([4]; HGF/SF-treated co-culture): induced tumor cell death |
| Clc1ccc(Nc2nnc(Cc3ccncc3)c3ccccc23)cc1 [PTK787] | – | blocked | no effect on the HGF/SF-induced response | – | – |
| O=C1CCC(N2C(=O)c3ccccc3C2=O)C(=O)N1 (centres unmarked) [thalidomide] | without affecting the tumor cells | collapse of the VEGF-induced vascular network | failed to inhibit the HGF-induced effect | – | angiogenic effects of VEGF [3]: inhibited the angiogenic effects of VEGF; endothelial cell loss ([4]; HGF/SF): induced endothelial cell loss |
| HGF/SF: growth factor added to the co-culture | – | – | – | significant increase in the vascular network | – |
| VEGF | – | – | – | significant increase in the vascular network | – |
